This assay addresses T1, Axl (Homo sapiens, UniProt P30530).
T1 construct: endogenous in cells; host or cells: HeLa cells
T1 sequence (P30530 26-894): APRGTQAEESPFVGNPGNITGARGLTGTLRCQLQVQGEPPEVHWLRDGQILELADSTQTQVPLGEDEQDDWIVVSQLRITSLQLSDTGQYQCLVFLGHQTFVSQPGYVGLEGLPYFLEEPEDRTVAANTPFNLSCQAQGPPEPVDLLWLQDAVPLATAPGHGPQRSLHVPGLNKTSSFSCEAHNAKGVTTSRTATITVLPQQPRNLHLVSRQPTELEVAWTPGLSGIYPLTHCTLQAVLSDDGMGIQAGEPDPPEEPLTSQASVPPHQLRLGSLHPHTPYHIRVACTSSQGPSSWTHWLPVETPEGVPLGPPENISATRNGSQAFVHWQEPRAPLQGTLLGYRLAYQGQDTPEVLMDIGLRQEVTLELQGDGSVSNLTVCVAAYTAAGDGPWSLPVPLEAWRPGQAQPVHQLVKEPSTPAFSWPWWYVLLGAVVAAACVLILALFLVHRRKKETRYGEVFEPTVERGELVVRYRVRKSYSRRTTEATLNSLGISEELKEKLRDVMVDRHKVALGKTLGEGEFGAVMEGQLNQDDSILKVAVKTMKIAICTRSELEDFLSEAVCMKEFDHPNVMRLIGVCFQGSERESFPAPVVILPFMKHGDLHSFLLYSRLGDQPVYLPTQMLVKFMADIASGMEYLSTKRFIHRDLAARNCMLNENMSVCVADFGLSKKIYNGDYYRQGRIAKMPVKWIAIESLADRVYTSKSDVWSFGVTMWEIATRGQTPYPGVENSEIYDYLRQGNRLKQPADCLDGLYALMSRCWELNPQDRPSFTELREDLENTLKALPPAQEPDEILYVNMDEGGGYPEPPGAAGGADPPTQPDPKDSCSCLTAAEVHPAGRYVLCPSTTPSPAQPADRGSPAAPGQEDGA
Nature of the assay: Phospho-Akt in-cell Western assay (inhibition of Axl activity). The assay is classed as cell-based. In outline:
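HeLa cells on poly-L-lysine, starved 24 h in 0.5% FCS DMEM with Axl/Fc 500 ng/mL, pre-treated with compound 1 h at 37° C. Axl stimulated 5 min by anti-Axl/anti-mouse antibody cross-linking. Fixed cells probed with anti-phospho-Akt and HRP secondary, chemiluminescence read.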

The mark [1] stands for this setting: inhibition of Axl activity, phospho-Akt in-cell Western assay, Table 1.
Setting [2] is: Table 5, Hela cells, Axl antibody cross-linking stimulation, phospho-Akt chemiluminescence.
Where [3] appears, read: inhibition of Axl activity, Table 1.

Where only a bound is given, the exact number is not on record here.

The text below walks through data of patent US8389557B2, “Triazole derivatives useful as Axl inhibitors” (Rigel Pharmaceuticals, Inc., priority 2005, dated 2013).

A word on the IC50: it is the point on the concentration scale where inhibition reaches its midpoint. Lower therefore signals inhibition by little substance. Under setting [1], `Nc1nc(Nc2ccc(OCCN3CCCC3=O)cc2)nn1C(=O)c1cccc(N2CCOCC2)c1` [compound 340, 5-amino-1-(3-(morpholin-4-yl)phenyl)carbonyl-3-[4-[2-(pyrrolidin-2-on-1-yl)ethoxy]phenylamino]-1H-1,2,4-triazole] came in with an IC50 of 1 to 10 µM.
Under setting [2], `CCOC(=O)c1cc2cc(Nc3nc(N)n(C(=O)c4cccc(C)c4)n3)ccc2o1` [compound 219, 5-amino-3-[2-(ethoxycarbonyl)benzofuran-5-yl]amino-1-(3-methylphenyl)carbonyl-1H-1,2,4-triazole] came in with an IC50 of 1 to 10 µM.
In turn, `CC(C)Oc1ccc(Nc2nc(N)n(C(=O)c3ccc(OCCN4CCCCC4)cc3)n2)cc1` [compound 77, 5-amino-3-[4-(iso-propoxy)phenylamino]-1-[4-[2-(piperidin-1-yl)ethoxy]phenyl)carbonyl-1H-1,2,4-triazole] showed a half-inhibitory concentration (IC50) under setting [3] of 1 to 10 µM.
Regarding `NC(=O)C1C2C=CC(C2)C1Nc1nc(N)n(C(=O)c2ccc3cc[nH]c3c2)n1` (stereo not shown) [compound 356, 5-amino-1-(1H-indol-6-yl)carbonyl-3-[(5-(aminocarbonyl)bicyclo[2.2.1]hept-2-en-6-yl)amino]-1H-1,2,4-triazole], for the setting “Table 9, Hela cells, Axl antibody cross-linking stimulation, phospho-Akt chemiluminescence”, the IC50 is > 20 µM.
Under setting [2], `Cc1cccc(C(=O)n2nc(Nc3ccc4cn(C)nc4c3)nc2N)c1` [compound 253, 5-amino-3-(1H-2-methyl-indazol-6-yl)amino-1-(3-methylphenyl)carbonyl-1H-1,2,4-triazole] yielded an IC50 of 1 to 10 µM.
For the compound `CC(C)Oc1ccc(C(=O)n2nc(Nc3ccc(N4CCN(C)CC4)cc3)nc2N)cc1` [compound 359, 5-amino-1-(4-(iso-propoxy)phenyl)carbonyl-3-[4-(4-methylpiperazin-1-yl)phenylamino]-1H-1,2,4-triazole], the IC50 under setting [1] was < 1 µM.
As for `CC(C)(C)Oc1ccc(C(=O)n2nc(N)nc2Nc2ccc(N3CCOCC3)cc2)cc1` [compound 58, 3-amino-5-(4-(morpholin-4-yl)phenylamino)-1-(4-(tert-butoxy)phenyl)carbonyl-1H-1,2,4-triazole], the IC50 (Table 2, Hela cells, Axl antibody cross-linking stimulation, phospho-Akt chemiluminescence) is > 20 µM.
Turning to `Nc1nc(Nc2ccc(OCCN3CCCC3)cc2)nn1C(=O)c1ccc(OCCN2CCOCC2)cc1` [compound 332, 5-amino-1-[4-(2-(morpholin-4-yl)ethoxy)phenyl]carbonyl-3-[4-[2-(pyrrolidin-1-yl)ethoxy]phenylamino]-1H-1,2,4-triazole], the half-maximal inhibitory concentration (IC50) under setting [1] is < 1 µM.
`Nc1nc(Nc2ccc(OCCN3CC[C@H](F)C3)cc2)nn1C(=O)c1ccc2cc[nH]c2c1` [compound 388, 5-amino-1-(1H-indol-6-yl)carbonyl-3-[4-[2-((S)-3-fluoropyrrolidin-1-yl)ethoxy]phenylamino]-1H-1,2,4-triazole]: where the note is “Table 3, Hela cells, Axl antibody cross-linking stimulation, phospho-Akt chemiluminescence”, the half-maximal inhibitory concentration (IC50) is < 1 µM.
Turning to `Cc1cccc(C(=O)n2nc(Nc3ccc4nn(C)cc4c3)nc2N)c1` [compound 222, 5-amino-3-(2-methyl-2H-indazol-5yl)amino-1-(3-methylphenyl)carbonyl-1H-1,2,4-triazole], the IC50 under setting [2] was > 20 µM.
Regarding `Cc1cccc(C(=O)n2nc(Nc3cccc(OCC(=O)NCC(O)CO)c3)nc2N)c1` (stereo not shown) [compound 153, 5-amino-3-[3-(N-(2,3-dihydroxypropyl)amino)carbonylmethoxy]-phenylamino-1-(3-(methyl)phenyl)carbonyl-1H-1,2,4-triazole], under setting [3], the IC50 was 1 to 10 µM.
`COC(=O)c1cccc(C(=O)n2nc(Nc3ccc(OCCN4CCCCC4)cc3)nc2N)c1` [compound 79, 5-amino-1-(3-(methoxycarbonyl)phenyl)carbonyl-3-[4-[2-(piperidin-1-yl)ethoxy]phenylamino]-1H-1,2,4-triazole] yielded an IC50 under setting [3] of 1 to 10 µM.
On to `CN(C)c1ccc(C(=O)n2nc(Nc3ccc4c(c3)OCCO4)nc2N)cc1` [compound 247, 5-amino-1-[(4-dimethylamino)phenyl]carbonyl-3-(1,4-benzodioxan-6-yl)amino-1H-1,2,4-triazole], for which the IC50 under setting [3] is 1 to 10 µM.
